Source: ChEMBL document CHEMBL5046240, “Design, synthesis, and evaluation of potent RIPK1 inhibitors with in vivo anti-inflammatory activity” (Eur J Med Chem, 2022)
Active and inactive are the calls of the source. No cut-off for these calls is given here.

How the values were obtained:
[1] = Cmax in Sprague-Dawley rat at 2 mg/kg, iv measured upto 24 hrs by LC-MS/MS analysis; assay type: ADME, organism-based; parameters: route intravenous, dose 2 mg/kg, time <=24; settings: in vivo
[2] = Efflux ratio of permeability across basolateral to apical side over apical to basolateral side in human Caco-2 cells by LC-MS/MS analysis; assay type: ADME, cell-based
L929 = test: Anti-necroptic activity in mouse L929 cells assessed as TNFalpha/Z-VAD (TSZ) induced necroptosis by measuring cell viability preincubated for 1 hr followed by TSZ addition and measured after 24 hrs by celltiter-glo luminescent cell viability assay; assay type: functional, cell-based
[3] = molecular target: Voltage-gated inwardly rectifying potassium channel KCNH2 (Homo sapiens, UniProt Q12809); test: Inhibition of hERG expressed in CHO cells at -80 mV holding potential measured after 4mins by automated patch-clamp assay; assay type: toxicity, cell-based
CYP1A2 = molecular target: T1, CYP1A2 (Homo sapiens, UniProt P05177); test: Inhibition of CYP1A2 (unknown origin) using Phenacetin as cocktail probe substrate at 10 uM preincubated for 20 mins followed by substrate addition and measured after 20 mins by LC-MS/MS analysis relative to control; assay type: ADME; settings: time 40 min
T1 sequence (P05177 whole entry): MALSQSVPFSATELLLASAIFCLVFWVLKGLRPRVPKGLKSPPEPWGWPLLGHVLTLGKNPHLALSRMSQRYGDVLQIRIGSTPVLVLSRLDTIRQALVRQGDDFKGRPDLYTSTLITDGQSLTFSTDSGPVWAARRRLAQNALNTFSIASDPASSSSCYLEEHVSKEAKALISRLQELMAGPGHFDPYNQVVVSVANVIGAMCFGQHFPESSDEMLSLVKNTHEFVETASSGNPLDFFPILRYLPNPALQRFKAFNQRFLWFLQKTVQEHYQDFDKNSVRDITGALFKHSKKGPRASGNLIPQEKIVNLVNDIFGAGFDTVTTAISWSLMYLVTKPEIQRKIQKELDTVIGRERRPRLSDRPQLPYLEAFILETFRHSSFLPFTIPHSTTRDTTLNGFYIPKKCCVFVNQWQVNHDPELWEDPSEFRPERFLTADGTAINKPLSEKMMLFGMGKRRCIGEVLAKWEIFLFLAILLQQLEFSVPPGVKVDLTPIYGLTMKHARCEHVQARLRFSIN

CYP2C9 = CYP2C9 (Homo sapiens, UniProt P11712); test: Inhibition of CYP2C9 (unknown origin) using tolbutamide as cocktail probe substrate at 10 uM preincubated for 20 mins followed by substrate addition and measured after 20 mins by LC-MS/MS analysis relative to control; assay type: ADME; settings: time 40 min
[4] = Permeability across apical to basolateral side in human Caco-2 cells at pH 7.4 by LC-MS/MS analysis; assay type: ADME, cell-based; settings: Caco-2, pH 7.4, read-out: permeability
[5] = Metabolic stability in rat liver microsomes assessed as half life by LC-MS/MS analysis; assay type: ADME, Microsome
[6] = Tmax in Sprague-Dawley rat at 10 mg/kg, po measured upto 24 hrs by LC-MS/MS analysis; assay type: ADME, organism-based; settings: in vivo
[7] = Clearance in Sprague-Dawley rat at 2 mg/kg, iv measured upto 24 hrs by LC-MS/MS analysis; assay type: ADME, organism-based; settings: in vivo
[8] = molecular target: Receptor-interacting serine/threonine-protein kinase 3 (Homo sapiens) (UniProt Q9Y572); test: Binding affinity to wild-type human partial length RIPK3 (M1 to Q307 residues) expressed in bacterial expression system at 10000 nM measured after 1 hr by Kinomescan method
[9] = molecular target: T2, Receptor-interacting serine/threonine-protein kinase 1 (Homo sapiens, UniProt Q13546); test: Inhibition of RIPK1 (unknown origin) using MBP and ATP as substrate preincubated for 10 mins followed by substrate addition and measured after 120 mins by ADP-Glo luminescence assay
T2 sequence (Q13546 whole entry): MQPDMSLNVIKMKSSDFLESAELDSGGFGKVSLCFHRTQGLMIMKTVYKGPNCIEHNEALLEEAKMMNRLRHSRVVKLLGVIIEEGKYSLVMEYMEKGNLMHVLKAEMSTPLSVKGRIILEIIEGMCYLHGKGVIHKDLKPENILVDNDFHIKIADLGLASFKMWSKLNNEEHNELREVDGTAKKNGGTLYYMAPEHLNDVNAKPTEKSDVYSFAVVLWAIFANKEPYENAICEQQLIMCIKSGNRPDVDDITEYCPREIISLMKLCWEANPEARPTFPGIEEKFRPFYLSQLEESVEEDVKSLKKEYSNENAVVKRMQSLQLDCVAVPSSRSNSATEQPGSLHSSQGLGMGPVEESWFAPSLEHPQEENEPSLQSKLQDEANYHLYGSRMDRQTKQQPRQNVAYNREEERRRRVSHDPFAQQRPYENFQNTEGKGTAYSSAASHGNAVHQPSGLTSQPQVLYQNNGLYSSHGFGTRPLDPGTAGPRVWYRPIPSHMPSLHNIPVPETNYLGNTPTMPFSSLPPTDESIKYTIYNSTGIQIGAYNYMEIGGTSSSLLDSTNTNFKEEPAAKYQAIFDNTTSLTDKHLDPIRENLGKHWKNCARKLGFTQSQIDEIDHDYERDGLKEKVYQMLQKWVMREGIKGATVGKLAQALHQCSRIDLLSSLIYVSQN

Mus musculus [10] = test: Antiinflammatory activity in TNFalpha-induced C57BL/6J mouse systemic inflammatory response syndrome model assessed as reduction in IL-6 production in serum at 3 mg/kg, ip pretreated for 15 mins and measured upto 72 hrs after TNFalpha stimulation; assay type: functional, organism-based
[11] = Toxicity in C57BL/6J mouse assessed as effect on body weight at 5 to 25 mg/kg, po administered daily for 7 days; assay type: organism-based; settings: in vivo, 168 h, dose 5-25 mg/kg, time 7 day
[12] = Toxicity in C57BL/6J mouse assessed as effect on heart morphological changes at 5 to 25 mg/kg, po administered daily for 7 days by Hand E staining method; assay type: organism-based; settings: in vivo, 168 h, dose 5-25 mg/kg, time 7 day
[13] = Toxicity in C57BL/6J mouse assessed as effect on spleen morphological changes at 5 to 25 mg/kg, po administered daily for 7 days by H and E staining method; assay type: organism-based; settings: in vivo, 168 h, dose 5-25 mg/kg, time 7 day
[14] = Toxicity in C57BL/6J mouse assessed as effect on lung morphological changes at 5 to 25 mg/kg, po administered daily for 7 days by H and E staining method; assay type: organism-based; settings: in vivo, 168 h, dose 5-25 mg/kg, time 7 day
[15] = Half life in Sprague-Dawley rat at 10 mg/kg , po measured upto 24 hrs by LC-MS/MS analysis; assay type: ADME, organism-based; settings: in vivo
[16] = Cmax in Sprague-Dawley rat at 10 mg/kg, po measured upto 24 hrs by LC-MS/MS analysis; assay type: ADME, organism-based; parameters: route oral, dose 10 mg/kg, time <=24; settings: in vivo
Mus musculus [17] = test: Anti-necroptosis activity against TNFalpha-induced C57BL/6J mouse systemic inflammatory response syndrome model assessed as reduction in hypothermia at 3 mg/kg, ip pretreated for 15 mins and measured upto 72 hrs after TNFalpha stimulation; assay type: functional, organism-based
[18] = Toxicity in C57BL/6J mouse assessed as effect on behavioral change at 5 to 25 mg/kg, po administered daily for 7 days; assay type: organism-based; settings: in vivo, 168 h, dose 5-25 mg/kg, time 7 day
[19] = Toxicity in C57BL/6J mouse assessed as effect on food intake at 5 to 25 mg/kg, po administered daily for 7 days; assay type: organism-based; settings: in vivo, 168 h, dose 5-25 mg/kg, time 7 day
[20] = Protein binding in rat plasma assessed as unbound fraction by LC-MS/MS based equilibrium dialysis method; assay type: ADME, cell-free

CYP2C9, sequence (P11712 whole entry): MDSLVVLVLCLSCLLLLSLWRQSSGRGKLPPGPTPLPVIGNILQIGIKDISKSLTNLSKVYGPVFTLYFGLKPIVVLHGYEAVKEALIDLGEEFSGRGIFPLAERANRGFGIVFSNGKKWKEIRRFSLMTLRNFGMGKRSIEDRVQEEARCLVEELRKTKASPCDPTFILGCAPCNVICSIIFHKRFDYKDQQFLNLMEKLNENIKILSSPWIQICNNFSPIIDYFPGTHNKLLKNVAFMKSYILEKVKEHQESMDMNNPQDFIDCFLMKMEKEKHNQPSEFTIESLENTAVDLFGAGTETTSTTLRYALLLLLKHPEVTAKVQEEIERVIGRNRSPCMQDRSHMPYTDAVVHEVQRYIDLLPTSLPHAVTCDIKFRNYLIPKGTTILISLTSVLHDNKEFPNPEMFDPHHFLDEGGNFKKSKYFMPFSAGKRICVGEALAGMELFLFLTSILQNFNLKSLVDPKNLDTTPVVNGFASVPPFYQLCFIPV
Receptor-interacting serine/threonine-protein kinase 3 (Homo sapiens), sequence (Q9Y572 whole entry, looked up, the tested form may be a part): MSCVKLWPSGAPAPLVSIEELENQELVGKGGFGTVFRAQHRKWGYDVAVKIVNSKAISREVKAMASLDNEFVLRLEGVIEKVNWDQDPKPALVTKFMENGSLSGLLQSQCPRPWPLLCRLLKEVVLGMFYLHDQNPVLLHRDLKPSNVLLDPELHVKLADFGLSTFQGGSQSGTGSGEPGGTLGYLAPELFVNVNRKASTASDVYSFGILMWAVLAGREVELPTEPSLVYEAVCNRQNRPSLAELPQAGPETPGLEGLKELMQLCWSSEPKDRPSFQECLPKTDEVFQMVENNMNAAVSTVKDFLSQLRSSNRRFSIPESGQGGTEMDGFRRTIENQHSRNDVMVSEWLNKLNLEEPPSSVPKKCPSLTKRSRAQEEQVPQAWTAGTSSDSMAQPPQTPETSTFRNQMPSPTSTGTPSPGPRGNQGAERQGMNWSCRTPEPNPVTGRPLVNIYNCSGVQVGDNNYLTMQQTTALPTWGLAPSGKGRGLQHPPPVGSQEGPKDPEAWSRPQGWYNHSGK
Voltage-gated inwardly rectifying potassium channel KCNH2, sequence (Q12809 whole entry): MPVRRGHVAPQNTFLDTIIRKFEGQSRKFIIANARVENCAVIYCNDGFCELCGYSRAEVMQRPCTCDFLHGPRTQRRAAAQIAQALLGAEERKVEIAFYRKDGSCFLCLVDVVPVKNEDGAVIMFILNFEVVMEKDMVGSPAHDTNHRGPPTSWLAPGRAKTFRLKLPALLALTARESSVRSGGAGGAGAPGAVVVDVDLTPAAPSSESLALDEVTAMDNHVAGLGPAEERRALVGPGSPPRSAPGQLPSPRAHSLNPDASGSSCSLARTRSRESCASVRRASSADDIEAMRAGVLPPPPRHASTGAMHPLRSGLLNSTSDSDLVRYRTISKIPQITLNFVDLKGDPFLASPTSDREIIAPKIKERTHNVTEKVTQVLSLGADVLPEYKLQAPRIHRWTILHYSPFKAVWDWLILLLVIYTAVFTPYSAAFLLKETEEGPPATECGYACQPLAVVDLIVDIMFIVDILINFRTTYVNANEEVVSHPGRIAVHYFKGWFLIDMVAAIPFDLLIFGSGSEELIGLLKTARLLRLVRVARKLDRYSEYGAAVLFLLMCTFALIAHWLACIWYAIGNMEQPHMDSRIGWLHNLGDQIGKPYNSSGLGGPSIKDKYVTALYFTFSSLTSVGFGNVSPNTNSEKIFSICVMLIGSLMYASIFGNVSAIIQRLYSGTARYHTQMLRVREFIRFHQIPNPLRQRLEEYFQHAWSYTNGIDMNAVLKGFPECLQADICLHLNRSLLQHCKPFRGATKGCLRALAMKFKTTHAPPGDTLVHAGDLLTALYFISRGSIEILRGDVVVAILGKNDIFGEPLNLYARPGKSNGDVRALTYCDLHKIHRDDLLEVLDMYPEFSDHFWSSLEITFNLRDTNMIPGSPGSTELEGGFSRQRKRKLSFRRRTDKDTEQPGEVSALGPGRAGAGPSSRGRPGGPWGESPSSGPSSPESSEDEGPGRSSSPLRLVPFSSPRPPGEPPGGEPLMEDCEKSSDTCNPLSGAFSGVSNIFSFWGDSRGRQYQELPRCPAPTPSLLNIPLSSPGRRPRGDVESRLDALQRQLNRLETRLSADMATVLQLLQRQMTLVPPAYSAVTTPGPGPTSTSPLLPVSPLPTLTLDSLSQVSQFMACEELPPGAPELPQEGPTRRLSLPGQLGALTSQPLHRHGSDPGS

For Cc1ncc(-c2ccc3nc(NC(=O)C4CC4)sc3c2)cc1NC(=O)OC1CCOCC1, the Cmax [1] was 1330 ng/mL, the efflux ratio [2] was 1.1 and the EC50 (L929) was 30 nM. The IC50 [3] was > 30000 nM, the inhibition at 20 min, 10 µM (CYP1A2) was 16% and the inhibition at 20 min, 10 µM (CYP2C9) was 62%. For the same molecule, the Papp A→B [4] was 33 ×10⁻⁶ cm/s, the half-life [5] was 0.65 h and the Tmax [6] was 1.2 h. The clearance [7] was 33 mL/min/kg, the Activity [8] was “inactive” and the IC50 [9] was 67 nM. For the same molecule, the Activity (Mus musculus [10]) was “Active”, the Activity [11] was “Non-Toxic” and the Activity [12] was “Non-Toxic”. The Activity [13] was “Non-Toxic”, the Activity [14] was “Non-Toxic” and the half-life [15] was 1.7 h. For the same molecule, the Cmax [16] was 1240 ng/mL, the Activity (Mus musculus [17]) was “Active” and the Activity [18] was “Non-Toxic”. For the same molecule, the Activity [19] was “Non-Toxic” and the fraction unbound [20] was 0.018.
